Patent publication US6982150B2, “System and method for identifying proteins involved in force-initiated signal transduction” (priority 2002, dated 2006)

Tests used:
[1] = tested on: Triton X-100-insoluble cytoskeletons of L-929 cells; assay: Stretch-dependent GFP paxillin binding to Triton X-100-insoluble cytoskeletons (fluorescence, Western blot); design: species or system Mouse
Procedure: Cells were washed once with isotonic ISO buffer (20 mM Hepes, pH 7.5, 150 mM NaCl, 0.5 mM EDTA, 1 mM DTT, 4 mM MgCl2, 1 mM PMSF, 15 μg/ml aprotinin), treated with 0.25% Triton X-100/ISO(+) buffer (ISO buffer supplemented with 0.5 mM ATP, 2% BSA) for 2 min. and washed three times with ISO (+) buffer.
The supernatant was filtrated using PD-10 column (Amersham Pharmacia Biotech, Piscataway, N.J.) preequilibrated with ISO buffer.
L-929 cells were cultured on the silicone substrate and Triton X-100 treated for 2 minutes, as indicated above. Thereafter, the Triton-X-100-insoluble cytoskeleton was washed 3 times with ISO(+) buffer to remove Triton X-100 and remaining Triton-soluble cellular components. After the third wash, the Triton X-100-insoluble cytoskeleton in ISO (+) buffer was left unstretched, stretched for 15 sec, or relaxed (pre-stretched and released from the stretch). The buffer was replaced with the lysate from L929 cells or 293 cells stably transfected with GFP paxillin and incubated for 2 minutes. The lysate was washed 4 times with ISO(+) buffer.
Cytoskeletons were stretched or unstretched. […]

[2] = tested on: L-929 cells; assay: Stretch-dependent paxillin assembly at focal contacts in intact cells (fluorescence microscopy / immunostaining); assay type: cell-based, Mouse; settings: intact L-929 cells, biaxial stretch 10%, genistein 100 μM, FIG. 4B
Procedure: Subconfluent L-929 cells transiently transfected with GFP paxillin in the collagen-coated (type I) silicone membrane (Flexcell International, Hillsborough, N.C.) were stretched biaxially (10% in each dimension) for 2 min., and the GFP fluorescence was observed by fluorescence microscopy. Five min after stretch, the silicone substrate was relaxed to its original size, and the fluorescence was recorded. For endogenous paxillin measurement, L-929 cells cultured in silicone membranes were stretched likewise for 2 min, and fixed with 3.7% formaldehyde/PBS.
GFP fluorescence of L-929 cells transfected with GFP-paxillin were also observed with an Olympus BX50 microscope with a 60×, 0.9 NA water immersion objective.
For immunostaining, cells were fixed with 3.7% formaldehyde/PBS, perneabilized with 0.1% Triton X-100/PBS before incubation with antibodies to paxillin and vinculin.

SMILES | amount of GFP paxillin bound to the stretched cytoskeletons ([1]; cells treated prior to Triton extraction, subconfluent, FIG. 5A, 5B, 5D) | stretch-dependent paxillin accumulation [2] | stretch-dependent GFP paxillin binding ([1]; 1 mM added to lysates together with PAO, DTT excluded, FIG. 5C)
O=c1c(-c2ccc(O)cc2)coc2cc(O)cc(O)c12 [genistein] | increase | not inhibited | 
[Na+].[Na+].[Na+].[O]=[V]([O-])([O-])[O-] [sodium orthovandate] |  |  | did not affect
